Key:
[1] = system: CCRF-CEM; test: Cytotoxicity against human CCRF-CEM cells assessed as cell growth inhibition; format: functional, cell-based
[2] = system: HL-60(TB); test: Cytotoxicity against human HL-60(TB) cells assessed as cell growth inhibition; format: functional, cell-based
[3] = system: K562; test: Cytotoxicity against human K562 cells assessed as cell growth inhibition; format: functional, cell-based
[4] = system: MOLT-4; test: Cytotoxicity against human MOLT-4 cells assessed as cell growth inhibition; format: functional, cell-based
[5] = system: RPMI-8226; test: Cytotoxicity against human RPMI-8226 cells assessed as cell growth inhibition; format: functional, cell-based
[6] = system: A549; test: Cytotoxicity against human A549 cells assessed as cell growth inhibition; format: functional, cell-based
[7] = system: HOP-62; test: Cytotoxicity against human HOP-62 cells assessed as cell growth inhibition; format: functional, cell-based
[8] = system: HOP-92; test: Cytotoxicity against human HOP-92 cells assessed as cell growth inhibition; format: functional, cell-based
[9] = system: NCI-H226; test: Cytotoxicity against human NCI-H226 cells assessed as cell growth inhibition; format: functional, cell-based
[10] = system: NCI-H23; test: Cytotoxicity against human NCI-H23 cells assessed as cell growth inhibition; format: functional, cell-based
[11] = system: NCI-H460; test: Cytotoxicity against human NCI-H460 cells assessed as cell growth inhibition; format: functional, cell-based
[12] = system: NCI-H522; test: Cytotoxicity against human NCI-H522 cells assessed as cell growth inhibition; format: functional, cell-based
[13] = system: COLO 205; test: Cytotoxicity against human COLO 205 cells assessed as cell growth inhibition; format: functional, cell-based
[14] = system: HCC 2998; test: Cytotoxicity against human HCC 2998 cells assessed as cell growth inhibition; format: functional, cell-based
[15] = system: HCT-116; test: Cytotoxicity against human HCT-116 cells assessed as cell growth inhibition; format: functional, cell-based
[16] = system: HCT-15; test: Cytotoxicity against human HCT-15 cells assessed as cell growth inhibition; format: functional, cell-based
[17] = system: HT-29; test: Cytotoxicity against human HT-29 cells assessed as cell growth inhibition; format: functional, cell-based
[18] = system: KM12; test: Cytotoxicity against human KM12 cells assessed as cell growth inhibition; format: functional, cell-based
[19] = system: SW-620; test: Cytotoxicity against human SW620 cells assessed as cell growth inhibition; format: functional, cell-based
[20] = system: SF-268; test: Cytotoxicity against human SF-268 cells assessed as cell growth inhibition; format: functional, cell-based
[21] = system: SF-539; test: Cytotoxicity against human SF-539 cells assessed as cell growth inhibition; format: functional, cell-based
[22] = system: SNB-19; test: Cytotoxicity against human SNB-19 cells assessed as cell growth inhibition; format: functional, cell-based
[23] = system: SNB-75; test: Cytotoxicity against human SNB-75 cells assessed as cell growth inhibition; format: functional, cell-based
[24] = system: U-251; test: Cytotoxicity against human U-251 cells assessed as cell growth inhibition; format: functional, cell-based
[25] = system: Malme-3M; test: Cytotoxicity against human Malme-3M cells assessed as cell growth inhibition; format: functional, cell-based
[26] = system: M14; test: Cytotoxicity against human M14 cells assessed as cell growth inhibition; format: functional, cell-based
[27] = system: MDA-MB-435; test: Cytotoxicity against human MDA-MB-435 cells assessed as cell growth inhibition; format: functional, cell-based
[28] = system: SK-MEL-2; test: Cytotoxicity against human SK-MEL-2 cells assessed as cell growth inhibition; format: functional, cell-based
[29] = system: SK-MEL-28; test: Cytotoxicity against human SK-MEL-28 cells assessed as cell growth inhibition; format: functional, cell-based
[30] = system: SK-MEL-5; test: Cytotoxicity against human SK-MEL-5 cells assessed as cell growth inhibition; format: functional, cell-based
[31] = system: UACC-257; test: Cytotoxicity against human UACC-257 cells assessed as cell growth inhibition; format: functional, cell-based
[32] = system: UACC-62; test: Cytotoxicity against human UACC-62 cells assessed as cell growth inhibition; format: functional, cell-based
[33] = system: IGROV-1; test: Cytotoxicity against human IGROV-1 cells assessed as cell growth inhibition; format: functional, cell-based
[34] = system: OVCAR-3; test: Cytotoxicity against human OVCAR-3 cells assessed as cell growth inhibition; format: functional, cell-based
[35] = system: OVCAR-4; test: Cytotoxicity against human OVCAR-4 cells assessed as cell growth inhibition; format: functional, cell-based
[36] = system: OVCAR-5; test: Cytotoxicity against human OVCAR-5 cells assessed as cell growth inhibition; format: functional, cell-based
[37] = system: OVCAR-8; test: Cytotoxicity against human OVCAR-8 cells assessed as cell growth inhibition; format: functional, cell-based
[38] = system: NCI/ADR-RES; test: Cytotoxicity against human NCI/ADR-RES cells assessed as cell growth inhibition; format: functional, cell-based
[39] = system: SK-OV-3; test: Cytotoxicity against human SK-OV-3 cells assessed as cell growth inhibition; format: functional, cell-based
[40] = system: 786-0; test: Cytotoxicity against human 786-0 cells assessed as cell growth inhibition; format: functional, cell-based
[41] = system: A498; test: Cytotoxicity against human A498 cells assessed as cell growth inhibition; format: functional, cell-based
[42] = system: ACHN; test: Cytotoxicity against human ACHN cells assessed as cell growth inhibition; format: functional, cell-based
[43] = system: CAKI-1; test: Cytotoxicity against human CAKI-1 cells assessed as cell growth inhibition; format: functional, cell-based
[44] = system: RXF 393; test: Cytotoxicity against human RXF 393 cells assessed as cell growth inhibition; format: functional, cell-based
[45] = system: SN12C; test: Cytotoxicity against human SN12C cells assessed as cell growth inhibition; format: functional, cell-based
[46] = system: TK-10; test: Cytotoxicity against human TK-10 cells assessed as cell growth inhibition; format: functional, cell-based
[47] = system: UO-31; test: Cytotoxicity against human UO-31 cells assessed as cell growth inhibition; format: functional, cell-based
[48] = system: PC-3; test: Cytotoxicity against human PC-3 cells assessed as cell growth inhibition; format: functional, cell-based
[49] = system: DU-145; test: Cytotoxicity against human DU-145 cells assessed as cell growth inhibition; format: functional, cell-based
[50] = system: MCF7; test: Cytotoxicity against human MCF7 cells assessed as cell growth inhibition; format: functional, cell-based
[51] = system: MDA-MB-231; test: Cytotoxicity against human MDA-MB-231 cells assessed as cell growth inhibition; format: functional, cell-based
[52] = system: Hs-578T; test: Cytotoxicity against human Hs-578T cells assessed as cell growth inhibition; format: functional, cell-based
[53] = system: BT-549; test: Cytotoxicity against human BT-549 cells assessed as cell growth inhibition; format: functional, cell-based
[54] = system: T47D; test: Cytotoxicity against human T47D cells assessed as cell growth inhibition; format: functional, cell-based
[55] = system: HT-29; test: Antiproliferative activity against human HT-29 cells assessed as reduction in cell viability; format: functional, cell-based
[56] = system: Panel NCI-60 (60 carcinoma cell lines); test: Cytotoxicity against human Panel NCI-60 (60 carcinoma cell lines) assessed as mean growth inhibition; format: functional
[57] = Cytotoxicity against human hTERT-HME1 cells assessed as cell growth inhibition; format: toxicity, cell-based
[58] = Cytotoxicity against human F180 cells assessed as cell growth inhibition; format: toxicity, cell-based

In the case of `O=c1[nH]cc(F)c(=O)[nH]1` [FLUOROURACIL], the IC50 [1] is reported as 9970 nM, the IC50 [2] is reported as 2300 nM and the IC50 [3] is reported as 3580 nM. It also gave an IC50 [4] of 350 nM, an IC50 [5] of 40 nM and an IC50 [6] of 180 nM. For the same molecule, the IC50 [7] was 390 nM, the IC50 [8] was 77900 nM and the IC50 [9] was 54700 nM. The IC50 [10] was 330 nM, the IC50 [11] was 50 nM and the IC50 [12] was 7270 nM. The IC50 [13] was 150 nM, the IC50 [14] was 50 nM and the IC50 [15] was 220 nM. The IC50 [16] was 110 nM, the IC50 [17] was 170 nM and the IC50 [18] was 210 nM. For the same molecule, the IC50 [19] was 920 nM, the IC50 [20] was 1620 nM and the IC50 [21] was 60 nM. The IC50 [22] was 3810 nM, the IC50 [23] was 78700 nM and the IC50 [24] was 920 nM. For the same molecule, the IC50 [25] was 50 nM, the IC50 [26] was 980 nM and the IC50 [27] was 70 nM. It also gave an IC50 [28] of 56700 nM, an IC50 [29] of 1030 nM and an IC50 [30] of 460 nM. It also gave an IC50 [31] of 3550 nM, an IC50 [32] of 520 nM and an IC50 [33] of 1220 nM. The IC50 [34] was 10 nM, the IC50 [35] was 4430 nM and the IC50 [36] was 10900 nM. For the same molecule, the IC50 [37] was 1740 nM, the IC50 [38] was 310 nM and the IC50 [39] was 21800 nM. For the same molecule, the IC50 [40] was 720 nM, the IC50 [41] was 350 nM and the IC50 [42] was 270 nM. The IC50 [43] was 70 nM, the IC50 [44] was 2610 nM and the IC50 [45] was 490 nM. The IC50 [46] was 1120 nM, the IC50 [47] was 1420 nM and the IC50 [48] was 2360 nM. For the same molecule, the IC50 [49] was 360 nM, the IC50 [50] was 70 nM and the IC50 [51] was 6600 nM. For the same molecule, the IC50 [52] was 9770 nM, the IC50 [53] was 10600 nM and the IC50 [54] was 8120 nM.
For `O=C(Nc1ccc(OS(=O)(=O)c2ccc(F)cc2)cc1)C1CCCCC1`, the IC50 [55] was 4730 nM.
In the case of `O=C(n1ccc2cc(OS(=O)(=O)c3ccccc3)ccc21)C12CC3CC(CC(C3)C1)C2`, the “inhibition (INH)” value [56] is reported as 88%.
`COc1cccc2c1C(=O)c1c(O)c3c(c(O)c1C2=O)C[C@@](O)(C(=O)CO)C[C@@H]3O[C@H]1C[C@H](N)[C@H](O)[C@H](C)O1` [DOXORUBICIN] gave an IC50 [57] of 770 nM and an IC50 [58] of 140 nM.
In the case of `O=C(n1ccc2cc(OS(=O)(=O)c3ccc(F)cc3)ccc21)C12CC3CC(CC(C3)C1)C2`, the “inhibition (INH)” value [56] is reported as 86%.
For `O=C(Nc1ccc(NS(=O)(=O)c2ccccc2)cc1)C12CC3CC(CC(C3)C1)C2`, the “inhibition (INH)” value [56] was 97.88%.
